Numbered stars: 1 amine (or outer) side, 2 acyl side, 3 side chain; on linkers, the order of the positions; unused ones are H or OH. Square brackets hold non-standard residues; d marks the D form. Peptide text beside a SMILES is read from it. * marks the point of attachment. X1 = CC(C)C[C@H](N[*:1])C(O)C[C@@H](C)C(=O)[*:2]; X2 = C[C@H](N[*:1])C(=O)C(F)(F)C(=O)[*:2]; Sta = CC(C)C[C@H](N)[C@@H](O)CC(=O)O; Nva = CCC[C@H](N)C(=O)O; Cbz = O=C(OCc1ccccc1)*; Boc = CC(C)(C)OC(=O)*

Test [1] deals with T1, Beta-secretase (BACE) (Homo sapiens, UniProt Q9Y5Z0+P56817). The test can be described thus: Inhibition of beta-secretase activity. Format: protein assay.
For test [2], the target named is Gamma-secretase subunit PEN-2 (Homo sapiens, UniProt Q9NZ42). As to the kind of experiment: Inhibition of Amyloid-beta production in APP-transfected cells at level of gamma secretase. Format: functional, cell-based.
Test [3] addresses Beta-secretase 1 (Homo sapiens, UniProt P56817). The test can be described thus: Inhibition of human recombinant beta-secretase.
The target of test [4] is T1, Beta-secretase (BACE). As to the kind of experiment: In vitro inhibition of beta-secretase was evaluated. Format: protein assay.

Gamma-secretase subunit PEN-2, sequence (Q9NZ42 whole entry): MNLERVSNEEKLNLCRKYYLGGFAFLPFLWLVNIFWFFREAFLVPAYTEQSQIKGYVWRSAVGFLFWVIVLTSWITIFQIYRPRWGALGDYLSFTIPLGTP
Beta-secretase 1, sequence (P56817 whole entry): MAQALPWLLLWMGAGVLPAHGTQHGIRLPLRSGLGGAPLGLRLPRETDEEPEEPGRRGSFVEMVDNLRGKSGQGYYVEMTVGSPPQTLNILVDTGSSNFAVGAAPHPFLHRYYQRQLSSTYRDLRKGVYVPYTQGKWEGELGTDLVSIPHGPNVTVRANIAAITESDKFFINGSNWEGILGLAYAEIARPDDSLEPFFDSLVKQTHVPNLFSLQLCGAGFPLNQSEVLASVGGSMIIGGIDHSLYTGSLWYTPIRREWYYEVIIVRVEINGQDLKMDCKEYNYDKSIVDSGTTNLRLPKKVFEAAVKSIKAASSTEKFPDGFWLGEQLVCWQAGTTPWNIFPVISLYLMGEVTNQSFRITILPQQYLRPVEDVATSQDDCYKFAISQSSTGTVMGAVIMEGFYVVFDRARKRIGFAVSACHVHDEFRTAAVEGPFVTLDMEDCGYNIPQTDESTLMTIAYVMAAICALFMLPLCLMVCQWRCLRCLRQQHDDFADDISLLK

In test [1], `CC(C)C[C@H](NC(=O)[C@H](Cc1ccccc1)C[C@@H](O)[C@H](Cc1ccccc1)NC(=O)OC(C)(C)C)C(=O)N[C@@H](Cc1ccccc1)C(N)=O` came in with an IC50 of 0.3 µM.

For the compound `CCC[C@@H](C=O)NC(=O)[C@H](CC(C)C)NC(=O)[C@H](CC(C)C)NC(C)=O` (Ac-Leu-Leu-[Nva]-aldehyde), the IC50 in test [2] was found to be 200 µM. On to `CC[C@H](C)[C@H](NC(=O)[C@@H](NC(=O)OC(C)(C)C)C(C)C)C(=O)N[C@@H](C)C(=O)C(F)(F)C(=O)N[C@H](C(=O)N[C@H](C(=O)OC)[C@@H](C)CC)C(C)C` (Boc-VI[X2]VI-OMe), for which, in test [2], the IC50 was determined as 13 µM. On the same count and under the same terms, under `CCC[C@@H](C=O)NC(=O)[C@H](CC(C)C)NC(=O)OCc1ccccc1` (Cbz-Leu-[Nva]-aldehyde) stands 200 µM. Turning to `CC(C)C[C@H](NC(=O)[C@H](CC(N)=O)NC(=O)[C@@H](NC(=O)[C@@H](N)CC(=O)O)C(C)C)C(O)C[C@@H](C)C(=O)N[C@@H](C)C(=O)N[C@@H](CCC(=O)O)C(=O)N[C@@H](Cc1ccccc1)C(=O)O` (stereo partly drawn) (H-DVN[X1]AEF-OH), in test [3], the Ki stood at 0.01 µM. In test [4], `CC[C@H](C)[C@H](NC(=O)[C@H](CCC(=O)O)NC(=O)[C@H](CCC(=O)O)NC(=O)[C@@H](NC(=O)[C@@H](N)CCCCN)[C@@H](C)O)C(=O)N[C@@H](CO)C(=O)N[C@@H](CCC(=O)O)C(=O)N[C@H](C(=O)N[C@@H](CC(N)=O)C(=O)N[C@@H](CC(C)C)[C@@H](O)CC(=O)N[C@H](C(=O)N[C@@H](C)C(=O)N[C@@H](CCC(=O)O)C(=O)N[C@@H](Cc1ccccc1)C(=O)O)C(C)C)C(C)C` (H-KTEEISEVN[Sta]VAEF-OH) gave an IC50 of 0.03 µM. With `CC(C)C[C@H](NC(=O)[C@H](CC(N)=O)NC(=O)[C@@H](N)C(C)C)C(O)C[C@@H](C)C(=O)N[C@@H](C)C(=O)N[C@@H](CCC(=O)O)C(=O)N[C@@H](Cc1ccccc1)C(=O)O` (stereo partly drawn) (H-VN[X1]AEF-OH), in test [3], the Ki is 0.068 µM. In turn, `CC(C)C[C@@H](C=O)NC(=O)[C@H](CC(C)C)NC(=O)[C@H](CC(C)C)NC(=O)OCc1ccccc1` [MG-132] (Cbz-Leu-Leu-Leu-aldehyde) yielded an IC50 in test [2] of 200 µM.

Usually IC50 stands for the concentration at which inhibition is half-maximal. What is called Ki is the equilibrium dissociation constant of an inhibitor or competing ligand from its target.

Source of the values: ChEMBL document CHEMBL1134505, “Secretase targets for Alzheimer's disease: identification and therapeutic potential” (J Med Chem, 2001).
